Reference: paper PMC9019507, “OAT10/SLC22A13 Acts as a Renal Urate Re-Absorber: Clinico-Genetic and Functional Analyses With Pharmacological Impacts” (Frontiers in Pharmacology, 2022)

Experiments:
URAT1/SLC22A12 [1] = biological target: T1, URAT1/SLC22A12 (Homo sapiens, UniProt Q96S37); test: inhibition of [[…]-14C]-urate uptake in URAT1-expressing […] cells ([…]); format: cell-based
T1 construct: full-length human URAT1 wild-type, EGFP-fused (pEGFP-C1)
T1 sequence (Q96S37 1-553): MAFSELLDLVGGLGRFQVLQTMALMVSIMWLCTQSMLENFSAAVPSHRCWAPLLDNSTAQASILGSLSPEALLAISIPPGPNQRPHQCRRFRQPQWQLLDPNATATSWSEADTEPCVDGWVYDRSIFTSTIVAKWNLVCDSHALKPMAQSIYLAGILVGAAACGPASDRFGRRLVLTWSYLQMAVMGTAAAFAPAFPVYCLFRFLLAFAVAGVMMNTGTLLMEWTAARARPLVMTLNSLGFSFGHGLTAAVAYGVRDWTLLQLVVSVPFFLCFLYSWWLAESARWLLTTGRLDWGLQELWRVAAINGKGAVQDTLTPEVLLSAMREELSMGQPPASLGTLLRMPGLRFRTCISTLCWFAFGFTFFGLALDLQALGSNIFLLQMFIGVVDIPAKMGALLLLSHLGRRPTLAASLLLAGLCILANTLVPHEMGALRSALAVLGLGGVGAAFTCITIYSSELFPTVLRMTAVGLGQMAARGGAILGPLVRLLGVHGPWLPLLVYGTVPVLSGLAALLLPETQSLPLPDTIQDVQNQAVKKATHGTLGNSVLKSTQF

OAT10/SLC22A13 [2] = biological target: T2, OAT10/SLC22A13 (Homo sapiens, UniProt Q9Y226); test: concentration-dependent inhibition of [[…]-14C]-urate uptake in OAT10-expressing […] cells; format: cell-based
T2 sequence (Q9Y226 whole entry): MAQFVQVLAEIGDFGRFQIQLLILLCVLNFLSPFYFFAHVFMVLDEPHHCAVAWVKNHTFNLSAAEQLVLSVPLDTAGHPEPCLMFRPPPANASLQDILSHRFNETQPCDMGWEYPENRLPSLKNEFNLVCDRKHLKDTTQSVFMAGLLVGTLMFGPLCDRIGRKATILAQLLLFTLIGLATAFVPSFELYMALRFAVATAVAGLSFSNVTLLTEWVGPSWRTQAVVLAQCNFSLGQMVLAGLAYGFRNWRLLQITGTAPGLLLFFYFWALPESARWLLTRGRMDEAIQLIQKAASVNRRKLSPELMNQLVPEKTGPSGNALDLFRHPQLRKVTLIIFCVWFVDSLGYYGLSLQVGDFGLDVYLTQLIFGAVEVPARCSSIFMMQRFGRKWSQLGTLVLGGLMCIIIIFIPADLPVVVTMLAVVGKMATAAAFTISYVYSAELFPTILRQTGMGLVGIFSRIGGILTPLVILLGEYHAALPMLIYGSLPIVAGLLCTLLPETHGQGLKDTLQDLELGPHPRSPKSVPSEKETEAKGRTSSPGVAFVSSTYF

URAT1/SLC22A12 [3] = biological target: T1, URAT1/SLC22A12; test: cell-based; design: species or system 293A; inhibition of [8-14C]-urate uptake by URAT1-expressing 293A cells, concentration-response
Protocol: Transiently URAT1-expressing 293A cells were subjected to a cell-based urate transport assay, 48 h after transfection. As a transport buffer, Ringer solution, which contains Cl−, or Cl−-free Hanks’ Balanced Salt Solution (HBSS) containing 10 μM [8-14C]-urate was used. […] Data are expressed as the mean ± SD; n = 4.

OAT10/SLC22A13 [4] = biological target: T2, OAT10/SLC22A13; test: cell-based; design: full-length human OAT10 wild-type, EGFP-fused (pEGFP-N1); species or system 293A
Protocol: Calculation of the Half-Maximal Inhibitory Concentration Values  FIGURE 5 Effects of urate-lowering drugs and their reactive metabolites on the urate transport activity of OAT10. (A) OAT10-mediated urate transport activities in the presence or absence of urate-lowering drugs, including their reactive metabolites, at 100 μM or experimentally maximum concentrations (Table 2). AP, allopurinol; OP, oxypurinol; FEB, febuxostat; TOP, topiroxostat; BBR, benzbromarone; 6-OH BBR, 6-hydroxybenzbromarone; DU, dotinurad; LU, lesinurad; PB, probenecid; FF, fenofibrate; LOS, losartan. (B) Comparison of the effects of each compound (10 μM) on the urate transport activities of URAT1 and OAT10. Values are shown as % of vehicle control (only 0.1% dimethyl sulfoxide); data are expressed as the mean ± SD; n = 3–4 (A,B). ^†† p < 0.01 (two-sided t-test). […] The urate transport activities were measured in the presence of each compound at indicated concentrations for 1 min.

URAT1/SLC22A12 [5] = biological target: T1, URAT1/SLC22A12; test: inhibition of [[…]-14C]-urate uptake in URAT1-expressing […] cells; format: cell-based
OAT10/SLC22A13 [6] = biological target: T2, OAT10/SLC22A13; test: inhibition of [[…]-14C]-urate uptake in OAT10-expressing […] cells; format: cell-based

IC50 (URAT1/SLC22A12 [3]) | IC50 (OAT10/SLC22A13 [4]) | IC50 (URAT1/SLC22A12 [5]) | IC50 (OAT10/SLC22A13 [6]) | SMILES | inhibition of [8-14C]-urate uptake in URAT1-expressing 293A cells (10 μM) (URAT1/SLC22A12 [1]) | IC50 (OAT10/SLC22A13 [2])
– | – | – | – | O=C(O)CSc1nnc(Br)n1-c1ccc(C2CC2)c2ccccc12 [LU, lesinurad] | lesinurad inhibited OAT10 and URAT1 comparably | lesinurad inhibited OAT10 and URAT1 comparably
0.043 µM | 7.7 µM | – | – | O=C(c1cc(Cl)c(O)c(Cl)c1)N1CS(=O)(=O)c2ccccc21 [DU, dotinurad] | benzbromarone, 6-hydroxybenzbromarone, and dotinurad were more specific to URAT1 than OAT10 | –
– | – | 11.9 µM | 2.5 µM | CCCCc1nc(Cl)c(CO)n1Cc1ccc(-c2ccccc2-c2nn[nH]n2)cc1 [LOS, losartan] | – | –
